Experiments:
[1] = Urinary excretion after single oral dose of Cogni.Q; format: in vivo, human; settings: pooled 0-24 h urine; for number of subjects with analyte detected in urine: of 20 subjects
Method: Plasma was prepared by centrifuging the heparinized blood at 1000 g for 15 minutes at room temperature. Urine samples (40mL) were collected within time spans of 0–4, 4–8, 8–12 and 12–24 hours (total volume of urine was recorded). All plasma and urine samples were put on dry ice immediately and then stored at -80°C freezer until analysis.
Urine samples from each subject collected from 0 to 24 hours post-dose were pooled proportional to the volume of urine in each sampling period. Urine sample (200μL) was spiked with 5 μL of prednisolone solution (10 ng/μL, IS), and extracted with 1500 μL of ethyl acetate. The ethyl acetate fraction was recovered and dried using a SpeedVac. The dried residue was reconstituted in 50 μL of methanol for UHPLC-MS/MS analysis and 5 μL of the sample was injected.
Urine samples from each subject were pooled proportional to the amount of urine in each sampling period (hours 0–4, 4–8, 8–12 and 12–24). DA was detected in its original form in the urine of 14 subjects whereas D was only detected in the urine of 3 subjects. The levels of detectable D and DA ranged from 0.06∼1.74 nmol/L. DOH was detected in the urine of all subjects with a mean concentration of 289 nmol/L. These extractable unmodified pyranocoumarin forms accounted for the 24-hour cumulative excretion of less than 1% of the ingested pyranocoumarins. Further work is needed to estimate the extent of additional metabolites (free and conjugated forms) in urine and plasma.

[2] = design: method as in PMID 24026903; settings: in vitro; cited from earlier work
[3] = tested on: murine colon carcinoma CT-26 cells; design: method as in PMID 21170925; settings: daily oral 10 mg/kg for 14 days, 30 minutes prior to CT-26 injection through tail vein; cited from earlier work
[4] = Stability of D and DA in fresh human whole blood and plasma; format: in vitro ADME; settings: 37°C for 1 h, no detectable generation of DOH and other metabolites (data not shown)
Method: To rule out possible artifacts of blood collection, processing and blood-borne esterases, we tested the stability of D and DA in freshly obtained human whole blood and plasma. There was no loss of D and DA in plasma and whole blood after incubation at 37°C for 1 h, with no detectable generation of DOH and other metabolites (data not shown).

[5] = design: method as in PMID 23364885; settings: rat n = 3, oral 33.5 mg/kg D and 21.5 mg/kg DA, cited from earlier work; for Cmax: read-out: C max, nmol/, Mean (SD)
[6] = design: method as in ref 23 = [23]; 23 Zhang J, Li L, Tang S, Zhang Y, Markiewski M, et al. (2013) Subchronic Toxicological Evaluation of Ethanol Extract of Medicinal Herb Angelica gigas Nakai and its Pyranocoumarin Tissue Distribution; settings: rodents; cited from earlier work
[7] = design: method as in ref (9) of IRB protocol; settings: ref (9) of IRB protocol; cited from earlier work
[8] = tested on: human umbilical vein endothelial (HUVEC) cells; design: method as in PMID 19307054; settings: 1 μmol/L; cited from earlier work
[9] = tested on: primary cultures of rat cortical cells; design: method as in PMID 17637179; settings: as low as 0.1 μmol/L; cited from earlier work
[10] = tested on: cultured prostate and breast cancer cells; design: method as in PMID 15705905, PMID 17363485, PMID 17986353; settings: up to 100 μM; cited from earlier work

SMILES | number of subjects with analyte detected in urine [1] | rate of metabolism by human vs mouse and rat liver S9 fraction [2] | formation of tumor nodules in the lungs and lung weight [3] | loss after incubation in plasma and whole blood [4] | AUC0–48h, h nmol/L, Mean (SD) [5] | T max, h, median (range) [5] | Cmax [5] [nM] | tissue/plasma ratios [6] | rate of metabolism by human vs mouse and rat liver microsomes [7] | VEGF-induced proliferation and capillary-tube formation [8] | urine mean concentration ([1]; all subjects) [nmol/L] | protective effect on glutamate-injured cells [9] | anti-proliferative effect [10]
CC(C)=CC(=O)O[C@H]1Cc2cc3ccc(=O)oc3cc2OC1(C)C [D, decursin] | 3 subjects | metabolized more slowly by human liver S9 fraction | reduced the formation of tumor nodules in the lungs and decreased lung weight | no loss | 36.0 (14.3) h nmol/L | 1 (0.5–2) h | 7.3 | substantially greater than that of DOH | metabolized much slower by human | – | – | – | –
C/C=C(/C)C(=O)O[C@H]1Cc2cc3ccc(=O)oc3cc2OC1(C)C [DA, decursinol angelate] | 14 subjects | metabolized more slowly by human liver S9 fraction | – | no loss | 64.3 (8.8) h nmol/L | 1 (0.5–2) h | 7.3 | substantially greater than that of DOH | metabolized much slower by human | – | – | – | –
CC1(C)Oc2cc3oc(=O)ccc3cc2C[C@@H]1O [DOH, decursinol] | all subjects | – | – | – | 81272 (6829) h nmol/L | 4 (3–8) h | 5640 | – | – | significantly inhibited | 289 | strong protective effect | little anti-proliferative effect

— publication PMC4335020, “Single Oral Dose Pharmacokinetics of Decursin and Decursinol Angelate in Healthy Adult Men and Women” (PLoS ONE, 2015)
